Experiment [1] has as its system endogenous LPL. The experiment can be described thus: Phosphorylation of endogenous (cellular) LPL in osteoclasts (LPL immunoprecipitation, p-Serine immunoblot). The class given is cell-based, mouse. The note with it: for inhibitory effect on the phosphorylation of cellular LPL: sNT-LPL peptides, 3-4 hours; for inhibitory effect on the phosphorylation of cellular LPL / phosphorylation of endogenous LPL: bone particles and TNF-α; for phosphorylation of endogenous LPL: TAT-fused LPL peptides 150 nM, 3 hours. As to the method:
Bone particles (60-80 μm in size) were prepared as described previously (Ma et at, 2010, J. Biol. Chem., 285: 29911-29924). After flushing the marrow cells for osteoclast differentiation as described above, long bones of mice (free of cells inside and muscles outside) were washed extensively with PBS and kept in ethanol until use. Long bones were air-dried in the hood and homogenized by a mini blender. Bone particles were sieved and used for experiments. Multinucleated osteoclasts were seen from day four onward. At this time cultures were added with bone particles (100 μg/ml media) for 3-4 hours or 12-14 hours in the presence of TNF-α (20 ng/ml). Some cultures were treated with 3-5 μg/ml TNFR1 antibody. Osteoclasts were preincubated with the TNFR1 antibody for 60-90 minutes before the addition of TNF-α to enhance the blocking effect. Osteoclasts incubated with bone particles for 3-4 or 12-14 hours in the presence of TNF-α were used for lysate preparations.
(§1) The vector pTAT-HA has an N-terminal 6-histidine leader (Nagahara et al., 1998, Nature Medicine, 4:1449-1452). […] For transduction with TAT-fused peptides (100-150 nM), osteoclasts were first kept in serum-free α-MEM for two hours. Afterward, TAT proteins of interest, bone particles, and TNF-α were added to cells in serum-free α-MEM Lysates were made from these cells for immunoprecipitation and immunoblotting analyses. Osteoclasts plated on dentine slices in the presence of TAT-proteins of interest and TNF-α for 3-6 hours or 12-14 hours were used for immunostaining or actin staining analyses. Osteoclast cultures treated only with TNF-α were used as controls.
Following various treatments, osteoclasts were washed three-times with cold PBS and lysed in a radioimmune precipitation buffer (RIPA; 10 mM Tris-HCl, pH 7.2, 150 mM NaCl, 1% deoxycholate, 1% Triton X-100, 0.1% SDS, 1% aprotinin, 2 mM PMSF, […], and 1% aprotinin). Cells were rocked on ice for 15 minutes and scraped off with a cell scraper. Cell lysates were centrifuged at 15,000 rpm for 5 minutes at 4° C., and the supernatant was saved. Protein contents were measured using Bio-Rad protein assay reagent. Equal amounts of lysate proteins (100-150 μg) were used for immunoprecipitations. Immunoprecipitations and Western blotting were done as described previously (Chellaiah et al., 1998, J. Biol. Chem., 273: 11908-11916; Chellaiah et al., 1996, Mol. Biol. Cell, 7: 743-753).
(§2) After cells were kept in the serum-free α-MEM medium for two hours, LPL peptides of interest were added to a final concentration of 100-150 nM to cells in serum-free media (Chellaiah et al, 2000, J. Biol. Chem., 275: 11993-12002). Osteoclasts transduced with peptides of interest and added with bone particles in the presence of TNF-α for 3-4 hours or 12-14 hours were used for lysate preparations. Cells plated on coverslips and treated with peptides were used for actin staining to detect podosomes. After transduction for 30 min., osteoclasts were re-plated on dentine slices with respective LPL peptide and TNF-α for 3-6 hours or 12-14 hours. These cells were used for Actin staining with rhodamine-phalloidin or immunostaining analyses (Chellaiah et al., 2000, J. Biol. Chem., 275: 11993-12002; Chellaiah et al., 2000, J. Cell. Biol., 148: 665-678; Chellaiah et al., 2003, J Biol Chem 278: 29086-29097).
Following various treatments, osteoclasts were washed three times with cold PBS and lysed in a Triton-containing lysis buffer as described (Chellaiah et al., 1996, Mol. Biol. Cell, 7: 743-753). Cells were rocked on ice for 15 minutes, and scraped off with a cell scraper. Cell lysates were centrifuged at 15,000 rpm for 5 minutes, at 4° C., and the supernatant was saved. Protein contents were measured using Bio-Rad protein assay reagent. Osteoclast cultures were also subjected to a trypan blue dye (Sigma T8154) exclusion test to determine the viability of osteoclasts after various treatments. […]

Experiment [2] concerns osteoclasts. The experiment can be described thus: Sealing ring formation in osteoclasts plated on dentine. It counts as cell-based, mouse. The note with it: for formation of mature sealing rings: sNT-LPL peptides, time course to 10 hours; for number of sealing rings: dentine 10-12 hours, TNF-α. On the procedure:
as §1
Osteoclast precursors (10^5 cells/coverslips) were cultured on glass cover slips or dentine slices. Fluorescent labeling was done in osteoclasts transduced or untransduced with TAT-proteins. HA or TAT antibody was used to identify the transduced peptides of interest; rhodamine phalloidin was used to determine actin organization (Chellaiah et al., 2000, J. Cell Biol., 148: 665-678; Chellaiah et al., 2000, J. Biol. Chem., 275: 11993-12002). Immunostained and actin stained osteoclasts were photographed with a Bio-Rad confocal laser-scanning microscope. Images were stored in TIF image format and processed by Adobe Photoshop (Adobe Systems Inc., Mountain View. Calif.).
as §2
Osteoclasts were fixed with 3% paraformaldehyde for 20 minutes and permeabilized with 0.1% Triton X-100 in PBS for 5 minutes. Subsequently, osteoclasts were stained with a primary (HA or integrin αv) and secondary antibody as described (Chellaiah et al., 2003, J Biol Chem 278: 29086-29097). Actin staining was done with rhodamine-phalloidin as described (Chellaiah et al., 2000, J. Biol. Chem., 275: 11993-12002; Chellaiah et al., 2000, J. Cell Biol., 148: 665-678). […]

Where a chain is given by its changes, count along the chain named.

The values that follow come from patent publication US11485762B2, “Compositions and methods for inhibition of L-plastin activity in osteoclasts to reduce bone loss” (University of Maryland, Baltimore, priority 2017, dated 2022).

As to “MARGAVADEE [Peptide P2, TAT-fused sNT-LPL peptide, Ser-5 and Ser-7 substituted to Alanine (A5A7)]”, the “inhibitory effect on the phosphorylation of cellular LPL” value (“inhibitory effect” below) in experiment [1] is “No significant inhibitory effect”.

For the molecule “MARGSVSDEE [Peptide P1, TAT-fused small molecular weight (10aa) amino-terminal LPL peptide, unsubstituted (S5S7)]”, in experiment [1] (FIG. 8B and FIG. 13B (mouse and RAW-derived osteoclasts)), the “cellular levels of LPL” value is “did not change”. Also, in experiment [1], the “inhibitory effect” value is on record as “inhibition is significant”. For the same molecule, the “formation of mature sealing rings” value in experiment [2] is recorded as “abrogated”.

As to “SRSGMVEEAD [Peptide P5, TAT-fused scrambled sNT-LPL peptide, control, reference compound]”, the “inhibitory effect” value in experiment [1] was “No significant inhibitory effect”. Besides, the “formation of mature sealing rings” value in experiment [2] was “time-dependent organization”.

B1: FL-LPL: HA-TAT fused full-length L-plastin protein (70-75 kDa), purified from bacterial expression vector pTAT-HA (protein, UniProt P13796 1-627, looked up)
chain: MARGSVSDEEMMELREAFAKVDTDGNGYISFNELNDLFKAACLPLPGYRVREITENLMATGDLDQDGRISFDEFIKIFHGLKSTDVAKTFRKAINKKEGICAIGGTSEQSSVGTQHSYSEEEKYAFVNWINKALENDPDCRHVIPMNPNTNDLFNAVGDGIVLCKMINLSVPDTIDERTINKKKLTPFTIQENLNLALNSASAIGCHVVNIGAEDLKEGKPYLVLGLLWQVIKIGLFADIELSRNEALIALLREGESLEDLMKLSPEELLLRWANYHLENAGCNKIGNFSTDIKDSKAYYHLLEQVAPKGDEEGVPAVVIDMSGLREKDDIQRAECMLQQAERLGCRQFVTATDVVRGNPKLNLAFIANLFNRYPALHKPENQDIDWGALEGETREERTFRNWMNSLGVNPRVNHLYSDLSDALVIFQLYEKIKVPVDWNRVNKPPYPKLGGNMKKLENCNYAVELGKNQAKFSLVGIGGQDLNEGNRTLTLALIWQLMRRYTLNILEEIGGGQKVNDDIIVNWVNETLREAKKSSSISSFKDPKISTSLPVLDLIDAIQPGSINYDLLKTENLNDDEKLNNAKYAISMARKIGARVYALPEDLVEVNPKMVMTVFACLMGKGMKRV
modifications: full-length HA-TAT tag
notes: HA-TAT fused full-length L-plastin protein (70-75 kDa), purified from bacterial expression vector pTAT-HA
In the case of B1, in experiment [1], the “phosphorylation of endogenous LPL” value was “basal level phosphorylation”. The “number of sealing rings” value in experiment [2] was “Multiple sealing rings”; in experiment [2] (listed as PL-LPL) it was “increased”.

B2: mutated FL-LPL: TAT-fused full-length L-plastin with Ser-5 and Ser-7 mutated to Ala-5 and Ala-7 (protein, UniProt P13796 1-627, looked up, variant S5A S7A)
chain: B1 chain with S5A, S7A
modifications: full-length HA-TAT tag
With B2, the “phosphorylation of endogenous LPL” value in experiment [1] is listed as “basal level phosphorylation”.
